# Assay results: patent publication US5364854A, “Derivatives of substituted imidazo benzoxazin-1-one and process for their preparation” (Farmitalia Carlo Erba S.r.l., priority 1992, dated 1994)
# Structures can show the parent of a compound that is named as a salt.
# Key:
# 5HT3 receptor [1] = target: T1, 5HT3 receptor (Rattus norvegicus, UniProt P35563); assay: Inhibition of the von Bezold-Jarisch chemoreflex evoked by 5-HT (20 μg/kg i.v.) in the anesthetised rat (in vivo 5HT3 antagonist activity); design: chemoreflex evoked by 5-HT in the anesthetised rat; from tissue; host or cells: anaesthetised rat in vivo (own knowledge: 5-HT3 receptors on cardiac vagal afferents); conditions: anesthetized rat; for % Inhibition: mean ± S.E.M.; for ED50: iv, limits in parentheses on the following line
# T1 sequence (P35563 24-483): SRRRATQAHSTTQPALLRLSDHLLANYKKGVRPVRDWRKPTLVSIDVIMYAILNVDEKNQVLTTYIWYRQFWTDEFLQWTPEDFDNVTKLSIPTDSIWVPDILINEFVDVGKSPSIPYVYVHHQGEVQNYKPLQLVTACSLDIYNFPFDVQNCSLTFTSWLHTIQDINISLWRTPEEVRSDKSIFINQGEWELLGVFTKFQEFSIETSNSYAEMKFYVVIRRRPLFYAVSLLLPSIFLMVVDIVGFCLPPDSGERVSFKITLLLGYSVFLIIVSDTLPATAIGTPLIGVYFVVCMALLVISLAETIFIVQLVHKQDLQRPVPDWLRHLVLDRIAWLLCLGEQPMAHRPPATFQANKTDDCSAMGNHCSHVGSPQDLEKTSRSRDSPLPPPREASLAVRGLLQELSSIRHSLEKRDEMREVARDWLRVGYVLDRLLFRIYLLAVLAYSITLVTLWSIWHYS
# Description: Pharmacol. 326, 36-44 (1984).
# The following Table I reports the in vivo 5HT3 antagonist activity data obtained in this test for the representative compounds of the invention 2,3,3a,4-tetrahydro-2-(1-azabicyclo [2.2.2]oct-3-yl)-8-chloro-1H-imidazo[5,1-c][1,4]benzoxazin-1-one hydrochloride (internal code FCE 26781);
# Inhibition of the Bezold-Jarisch reflex elicited by 5-HT (20
# μg/kg i.v.) by i.v. FCE compounds in the anesthetized rat.
# Values are mean ± S.E.M. from N animals
# 5HT3 receptor [2] = target: T1, 5HT3 receptor; assay: 5-HT3 binding affinity in rat entorhinal cortex using ^3 H-BRL 43694 (Granisetron); design: labelled in the entorhinal cortex of the rat brain; from tissue; host or cells: rat entorhinal cortex
# Description: The affinity for serotonin 5-HT3 receptor was also assessed for instance in rat entorhinal cortex using the selective radioligand ^3 H-[…] as described by Nelson and Thomas (1989).
# Nelson D. R. and Thomas D. R., [^3 H]-BRL 43694 (Granisetron), a specific ligand for 5-HT3 binding sites in rat brain cortical membranes Biochem. Pharmac. 38, 1693-1695, 1989.
# The following Table III summarizes the data obtained in this in vitro test for a representative group of compounds of the invention in comparison with the known reference compounds MDL 72222 and Metoclopramide.
# 5-HT3 binding affinity ^b) for rat entorhinal cortex.
# ^(b) ^3 […] labelled 5HT3 sites
# 5-HT3 receptor = assay: Inhibition of the binding of ^3 H-GR65630 to 5-HT3 sites in rat entorhinal cortex; conditions: ^3 H-GR 65630, rat entorhinal cortex, low (affinity site), two-site fit
# Source text: (§1) The following Table II reports the data obtained in this in vitro test for a representative group of compounds of the invention in comparison with the known reference compounds MDL 72222 and Metoclopramide.
# (§2) 5-HT3 binding affinity ^(a) for rat entorhinal cortex
# (§3) ^(a) [^3 HGR 65630 labelled 5HT3 sites.
# (§4) The tested compounds were able to interact with 5-HT3 -serotonin receptors labelled in the entorhinal cortex of the rat brain with ^3 H-GR 65630.
# 5HT3 receptor [3] = target: T1, 5HT3 receptor; assay: as above; design: labelled in the entorhinal cortex of the rat brain; from tissue; host or cells: rat entorhinal cortex
# Source text: as §1, §2, §3, §4
# [4] = ^3 H-GR 65630, rat entorhinal cortex, high (affinity site), only Ki where one-site fit, read-out: Ki high
# [5] = ^3 H-BRL 43694 labelled 5HT3 sites, rat entorhinal cortex, read-out: Ki
Structure (SMILES),"% Inhibition (5HT3 receptor [1]; 50 μg/kg i.v., N=6)","% Inhibition (5HT3 receptor [1]; 150 μg/kg i.v., N=6)","% Inhibition (5HT3 receptor [1]; 450 μg/kg i.v., N=6)",ED50 (5HT3 receptor [1]),Ki (5HT3 receptor [2]),Ki (5-HT3 receptor),Ki (5HT3 receptor [3]),"% Inhibition (5HT3 receptor [1]; 100 μg/kg i.v., N=3-7)",Ki (5HT3 receptor [3]; [4]),Ki (5HT3 receptor [2]; [5])
"Cl.O=C1N(C2CN3CCC2CC3)CC2COc3ccc(Cl)cc3N12 (stereo not shown) [FCE 26781, 2,3,3a,4-tetrahydro-2-(1-azabicyclo [2.2.2]oct-3-yl)-8-chloro-1H-imidazo[5,1-c][1,4]benzoxazin-1-one hydrochloride]",29.50 ± 6.34%,50.38 ± 5.45%,90.38 ± 2.80%,0.112 mg/kg,13 nM,1900 nM,2.61 nM,–,–,–
"CN1C2CCC1CC(N1CC3COc4ccc(Cl)cc4N3C1=O)C2 (stereo not drawn) [FCE 26783, (endo)-2,3,3a,4-tetrahydro-8-chloro-2-(8-methyl-8-azabicyclo [3.2.1]oct-3-yl)-1H-imidazo[5,1-c][1,4]benzoxazin-1-one hydrochloride]",–,–,–,–,30 nM,–,–,30.9 ± 6.0%,400 nM,–
"CN1C2CCCC1CC(N1CC3COc4ccc(Cl)cc4N3C1=O)C2 (stereo not drawn) [FCE 26785, (endo)-2,3,3a,4-tetrahydro-8-chloro-2-(9-methyl-9-azabicyclo[3.3.1]non-3-yl)-1H-imidazo[5,1-c][1,4]benzoxazin-1-one hydrochloride]",–,–,–,–,–,600 nM,9.79 nM,–,–,310 nM
"CN1C2CCC1CC(N1CC3COc4ccccc4N3C1=O)C2 (stereo not drawn) [FCE 26878, (endo)-2,3,3a,4-tetrahydro-2-(8-methyl-8-azabicyclo[3.2.1]oct-3-yl)-1H-imidazo[5,1-c][1,4]benzoxazin-1-one, hydrochloride]",–,–,–,0.0138 mg/kg,9 nM,–,70 nM,85.8 ± 1.7%,–,–
"Cl.O=C1N(C2CN3CCC2CC3)CC2COc3ccccc3N12 (stereo not shown) [FCE 26962, 2,3,3a,4-tetrahydro-2-(1-azabicyclo[2.2.2]oct-3-yl)-1H-imidazo [5,1-c][1,4]benzoxazin-1-one hydrochloride]",–,–,–,0.0263 mg/kg,0.4 nM,14000 nM,9.74 nM,86.4 ± 1.8%,–,–
"CN1C2CCCC1CC(N1CC3COc4ccccc4N3C1=O)C2 (stereo not drawn) [FCE 26963, (endo)-2,3,3a,4-tetrahydro-2-(9-methyl-9-azabicyclo[3.3.1]non-3-yl)-1H-imidazo[5,1-c][1,4]benzoxazin-1-one hydrochloride]",–,–,–,–,–,72000 nM,–,27.1 ± 10.7%,151 nM,170 nM
"CN1C2CCC1CC(OC(=O)c1cc(Cl)cc(Cl)c1)C2 (stereo not shown) [MDL 72222, reference compound]",–,–,–,–,23 nM,–,–,–,–,–
"CCN(CC)CCNC(=O)c1cc(Cl)c(N)cc1OC [Metoclopramide, reference compound]",–,–,–,–,490 nM,–,–,–,–,–
